Data: patent EP0427799B1, “METHOD AND COMPOUNDS FOR AICA RIBOSIDE DELIVERY AND FOR LOWERING BLOOD GLUCOSE” (GENSIA, INC., priority 1989, dated 1990)

How the values were obtained:
[1] = system: skin flap; assay: Protection against ischemic injury in skin flap model; assay type: in vivo, rats; settings: skin flap viability 3 days post-surgery; pretreatment 45 minutes before surgery (SOD at time of surgery)
Experimental: Compounds were tested for their activity in protecting against ischemic injury in a skin flap model in rats.
Animals were pretreated with AICA riboside or AICA riboside plus adenosine deaminase (ADA) 45 minutes before surgery or, as a positive control, superoxide dismutase (SOD) was used at the time of surgery. A skin flap was raised on the abdomen of a rat for 6 hours and then sewn down. The percent viability of the flaps was evaluated at 3 days post-surgery.
This effect was not as pronounced in the presence of ADA, supporting the importance of adenosine's protective role in this setting.

[2] = system: liver glycogen; assay: Effect on liver glycogen in mice; assay type: in vivo; settings: 750 mg/Kg
Experimental: (See Figures 9 and 10A to 10D). The glucose lowering effects of AICA riboside are related temporally to the generation and maintenance of liver ZMP levels in rats. (See Figures 11A and 11B).
Swiss Webster mice were treated with saline (as a control) or 750 mg/kg of AICA riboside administered intraperitoneally, six animals per group. The mice were sacrificed one hour post-administration The livers were removed and extracted. Liver glycogen was determined by the method of Dubois, et al., Anal. Chem. 28:350-356 (1956). Glucose was measured by the hexokinase method (See Example K).

[3] = system: serum glucose; assay: Plasma glucose levels in humans after intravenous infusion; assay type: in vivo
Experimental: Healthy male volunteers were given a 30-minute intravenous infusion of AICA riboside at doses of 25 mg/kg, 50 mg/kg or 100 mg/kg.
Plasma glucose levels were monitored over a four hour period during and following the 30 minute infusion. Plasma glucose was measured by clinical chemistry autoanalyzer. The onset of the serum glucose lowering effect was evident by the end of the AICA riboside infusion period and plasma glucose reached a nadir approximately 30 minutes after the AICA riboside infusion was stopped. Recovery to euglycemic levels was complete by about three hours.

[4] = system: ischemic heart tissue; assay: Adenosine, AICA riboside and ZMP levels in ischemic heart tissue; assay type: in vivo, rats; settings: ischemic rat heart tissue
Experimental: Prodrug compounds of the present invention and AICA riboside were tested for their activity in enhancing the production of adenosine and increasing production of AICA riboside from ZMP in ischemic heart tissue in rats.
Samples of heart tissue after ischemia were analyzed for nucleoside and nucleotide levels. Samples were measured for adenosine, AICA riboside and ZMP concentrations by HPLC.

[5] = in vivo; design: species or system dogs; settings: dog
Experimental: The bioavailability of AICA riboside after oral administration of either AICA riboside or one of the AICA riboside prodrugs of the present invention was evaluated in dogs. Plasma concentrations of AICA riboside and intact prodrug were measured using HPLC. (See Dixon, R., et al., Res. Commun. Chem. Path. Pharm. 65:405-408 (1989)). Bioavailability of AICA riboside was evaluated in terms of the time required to reach maximum plasma concentration (Tmax), the maximum concentration achieved (Cmax) and the area under the plasma concentration-time curve (AUC) from time zero to the last measurable plasma concentration. Absolute bioavailability (F%) was calculated by dividing the AUC for AICA riboside following oral administration of the prodrug (or AICA riboside itself) by the AUC following intravenous administration of an equivalent amount of AICA riboside (100% bioavailability).

[6] = target: adenosine kinase (Homo sapiens, UniProt P55263); assay: Inhibition of adenosine kinase; assay type: biochemical
adenosine kinase, sequence (P55263 whole entry, species assumed): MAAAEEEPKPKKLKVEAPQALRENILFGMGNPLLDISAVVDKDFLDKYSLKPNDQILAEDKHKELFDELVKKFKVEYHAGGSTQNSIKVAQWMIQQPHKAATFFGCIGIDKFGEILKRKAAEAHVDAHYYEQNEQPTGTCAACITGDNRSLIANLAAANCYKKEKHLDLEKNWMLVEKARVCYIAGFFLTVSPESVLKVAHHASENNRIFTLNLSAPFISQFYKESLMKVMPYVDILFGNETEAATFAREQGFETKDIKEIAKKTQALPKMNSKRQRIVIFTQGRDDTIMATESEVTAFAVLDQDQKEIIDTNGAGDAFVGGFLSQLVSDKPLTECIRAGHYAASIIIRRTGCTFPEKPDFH

[7] = system: triglycerides; assay: Plasma triglyceride levels in diabetic rats, chronic treatment; assay type: in vivo; settings: streptozotocin-induced diabetes in rats
Experimental: Rats were made diabetic by treatment with streptozocin (50 mg/kg IV) and then treated with either saline or AICA riboside (500 mg/kg, twice a day) for 22 days. Plasma triglyceride levels were analyzed 18 hours after the last injection of AICA riboside using the Sigma Procedure #334 Assay Kit (coupled assay employing lipase, glycerokinase, pyruvate kinase and lactate dehydrogenase) which measures decreases in OD₃₄₀ over time (NADH disappearance).

[8] = system: infarct size; assay: Rat models of focal brain ischemia (partial and total reperfusion); assay type: in vivo; settings: 800 mg/kg IP
From the text: (§1) The claimed prodrugs, by delivering AICA riboside should provide similar efficacy. […] Both intracerebroventricular (ICV) and IP administration of AICA riboside was effective in the gerbil model In addition to the gerbil, two different rat models of focal ischemia were also used to evaluate AICA-riboside. One model employed partial reperfusion and the second total reperfusion.

[9] = system: Blood glucose; assay: Hypoglycemic effects of oral AICA riboside prodrugs; assay type: in vivo, mice (Swiss Webster); settings: equimolar amounts
Experimental: Male mice (Swiss Webster) were given equimolar amounts of either saline, AICA riboside, or compounds C1 or 10 of Table I orally. Blood glucose levels were measured one hour after administration by the glucose strip method (Chemstrip B.G.).

[10] = system: insulin; assay: Blood insulin levels in rats; assay type: in vivo; settings: high doses, early time points
From the text: This leads to investigation of the mechanism of AICA riboside induced hypoglycemia. […] This adenosine induced hyperglycemia is reversed by adenosine receptor antagonists (theophylline and sulphophenyltheophylline). Additionally, the AICA riboside-induced hypoglycemia is not blocked by theophylline. It is therefore concluded that the AICA riboside effect on plasma glucose is not mediated by adenosine. […] (See Figure 13).

[11] = system: hippocampal CA-1 cells; assay: Gerbil model of 5 minutes global brain ischemia followed by reperfusion; assay type: in vivo; settings: ICV and IP administration
From the text: as §1

[12] = healthy male volunteers, 30-minute intravenous infusion

NC(=O)c1ncn([C@@H]2O[C@H](CO)[C@@H](O)[C@H]2O)c1N [AICA riboside, 1-β-D-ribofuranosyl-5-aminoimidazole-4-carboxamide]
% Viable [1]: 75% | increase of liver glycogen [2]: 55% | time of plasma glucose nadir after infusion was stopped [3, 12]: approximately 30 minutes | time to recovery to euglycemic levels [3, 12]: about three | effect on serum glucose ([3]; humans, 25 mg/kg intravenously over 30 minutes): significant reductions in serum glucose | Tissue Concentration Adenosine ([4]; Prodrug A at dose equimolar to AICA riboside): 409 ± 60 nmol/g | Tissue Concentration AICA Riboside ([4]; equimolar doses): 774 ± 73 nmol/g | AUC(0-t) ([5]; iv): 8300 ng·h/mL | F ([5]; iv): 100% | AUC(0-t) ([5]; po): 900 ng·h/mL | Cmax ([5]; po): 1100 ng/mL | Tmax ([5]; po): 45 min | bioavailability ([5]; po): 11% | inhibition of adenosine kinase [6]: weak inhibitor | serum triglycerides [7]: lowers serum triglycerides | infarct size [8]: highly significant reduction in infarct size | hypoglycemia after oral administration [9]: did not produce detectable hypoglycemia | blood insulin levels [10]: suppress blood insulin levels | degeneration of hippocampal CA-1 cells [11]: prevented the degeneration of hippocampal CA-1 cells
